Like-named read-outs stand apart in the source and are kept apart here. Bounds are passed on as bounds.

The values below come from patent publication US20060142271A1, “Novel lapacho compounds and methods of use thereof” (priority 2002, published 2006).

Data set [1] deals with HaCaT cells. Kind of data set: HaCaT keratinocyte proliferation assay (cell counting). The data set is classed as cell-based, human. To be noted: for IC50: antiproliferative activity against HaCaT cells, N = 3, read-out: AA in HaCaT Cells IC50; for inhibition of HaCaT cell proliferation (in words): HaCaT cells. As for the experimental part:
Anthralin, an antipsoriatic drug, was used as a positive control. Antiproliferative activity was measured directly by counting the dispersed cells under a phase-contrast microscope.
HaCaT keratinocyte proliferation assay and LDH release were described previously in full detail (Muller et al. J. Med. Chem. 39: 3132-3138, 1996; Müller et al. J. Med. Chem. 37: 1660-1669, 1994). For the cancer cell line studies, exponentially growing cells were seeded at 1,000 cells per well in six-well plates and allowed to attach for 24 h. Compounds of the invention or β-lapachone, solubflized in DMSO, were added to the wells in micromolar concentrations. Control wells were treated with equivalent volumes of DMSO. After 4 h the supernatant was removed and fresh medium was added. Cultures were observed daily for 10-15 days and then were fixed and stained. Colonies of greater than 30 cells were scored as survivors. […]

The test system of data set [2] is HaCaT cells. The format is cell-based, human. To be noted: for LDH (mU): human, 2 μM. The method, then:
(§1) HaCaT keratinocyte proliferation assay and LDH release were described previously in full detail (Muller et al. J. Med. Chem. 39: 3132-3138, 1996; Müller et al. J. Med. Chem. 37: 1660-1669, 1994). For the cancer cell line studies, exponentially growing cells were seeded at 1,000 cells per well in six-well plates and allowed to attach for 24 h. Compounds of the invention or β-lapachone, solubflized in DMSO, were added to the wells in micromolar concentrations. Control wells were treated with equivalent volumes of DMSO. After 4 h the supernatant was removed and fresh medium was added. Cultures were observed daily for 10-15 days and then were fixed and stained. Colonies of greater than 30 cells were scored as survivors.
The cytotoxicity of naphthoquinones has been thought to result, at least in part, from reactive oxygen species, generated during redox cycling between the […] and reduction products (Munday, R., Free Radic. Biol. Med., 22, 689-695, 1997), which cause peroxidative damage to membrane lipids. To assess the correlation of keratinocyte growth inhibition with membrane damage, the release of lactate dehydrogenase from the treated cells was also quantitated.

Data set [3] concerns colon cancer cell line DLD1. As to the kind of experiment: Cancer cell line colony survival assay, DLD1. The data set is classed as cell-based, human. Conditions: colon cancer cell line DLD1, 4 h exposure, colonies after 10-15 days, read-out: AA in Cancer Cell Lines IC50 (μM) DLD1. The method, then: as §1
Data set [4] has as its system colon cancer cell line SW480. Kind of data set: Cancer cell line colony survival assay, SW480. The format is cell-based, human. Conditions: colon cancer cell line SW480, 4 h exposure, colonies after 10-15 days, read-out: AA in Cancer Cell Lines IC50 (μM) SW480. As for the experimental part: as §1
The test system of data set [5] is breast cancer cell line MCF7. Kind of data set: Cancer cell line colony survival assay, MCF7. The data set is classed as cell-based, human. Conditions: breast cancer cell line MCF7, 4 h exposure, colonies after 10-15 days, read-out: AA in Cancer Cell Lines IC50 (μM) MCF7. The method, then:
as §1

For `CC(=O)c1cc2c(s1)C(=O)c1ccccc1C2=O` [Compound 63b, 2-Acetyl-naphtho[2,3-b]thiophene-4,9-dione], the melting point (usually the temperature of the solid-liquid transition) lay within 261 to 262 °C. Also, the concentration for half-maximal inhibition (IC50) (commonly the midpoint of a concentration-inhibition curve) in data set [1] (Homo sapiens) amounted to 0.3 µM. Further, the “LDH (mU)” value in data set [2] turned out to be 134 mU. For the same compound, in data set [3] (Homo sapiens, DLD-1), the IC50 came out at 1 µM. Moreover, in data set [4] (Homo sapiens), the IC50 was found to be 4 µM. Also, the IC50 in data set [5] (Homo sapiens) was no more than 1 µM.
Consider `COc1ccc(C(=O)c2cc3c(s2)C(=O)c2ccccc2C3=O)cc1` [Compound 62b, 2-(4-Methoxybenzoyl)-naphtho[2,3-b]thiophene-4,9-dione], for which the half-maximal inhibitory concentration (IC50) in data set [1] (Homo sapiens) was greater than 5 µM; in data set [3] (Homo sapiens, DLD-1) it was 5.5 µM; in data set [4] (Homo sapiens), 16 µM; in data set [5] (Homo sapiens), 3 µM.
In turn, `O=C(c1ccc([N+](=O)[O-])cc1)c1cc2cc3ccccc3cc2s1` [Compound 66a, Naphtho[2,3-b]thiophen-2-yl-(4-nitrophenyl)methanone] registered a melting point of 251 to 252 °C. Further, the IC50 in data set [1] (Homo sapiens) is greater than 5 µM. Besides, the IC50 in data set [3] (Homo sapiens, DLD-1) was greater than 32 µM. For the same compound, the IC50 in data set [4] (Homo sapiens) was greater than 32 µM. In addition, the IC50 in data set [5] (Homo sapiens) was greater than 32 µM.
`O=C1c2cccc(O)c2C(=O)c2ccsc21` [Compound 82, 5-Hydroxy-naphtho[2,3-b]thiophene-4,9-dione]: in data set [1], the “inhibition of HaCaT cell proliferation (in words)” value (shortened to “inhibition”) was “inhibited cell proliferation at concentrations comparable to β-lapachone and the furan analogs”. In data set [1] (Homo sapiens), the IC50 worked out at 1 µM. Moreover, in data set [2], the “LDH release compared to vehicle control (in words)” value is recorded as “without significant elevation of LDH release over the vehicle control” and the “LDH (mU)” value worked out at 117 mU.
`COc1ccc(C(=O)c2cc3cc4ccccc4cc3s2)cc1` [Compound 62a, (4-Methoxyphenyl)-naphtho[2,3-b]thiophen-2-yl-methanone]: the IC50 in data set [1] (Homo sapiens) is greater than 5 µM; in data set [3] (Homo sapiens, DLD-1) it was greater than 32 µM; in data set [4] (Homo sapiens), greater than 32 µM; in data set [5] (Homo sapiens), greater than 32 µM.
Turning to `O=C(c1ccc(O)cc1)c1cc2c(s1)C(=O)c1ccccc1C2=O` [Compound 62c, 2-(4-Hydroxybenzoyl)-naphtho[2,3-b]thiophene-4,9-dione], the IC50 is 2.7 µM in data set [1] (Homo sapiens); 5.3 µM in data set [3] (Homo sapiens, DLD-1); 12 µM in data set [4] (Homo sapiens); 2 µM in data set [5] (Homo sapiens). Moreover, the “LDH (mU)” value in data set [2] was 123 mU.
For the compound `O=C(c1ccccc1)c1cc2c(o1)C(=O)c1ccccc1C2=O` [Compound 74b, 2-Benzoyl-naphtho[2,3-b]furan-4,9-dione], the melting point was 198 to 200 °C. The IC50 in data set [1] (Homo sapiens) is 0.7 µM. The “LDH (mU)” value in data set [2] turned out to be 222 mU.
In the case of `CC(=O)c1cc2cc3ccccc3cc2s1` [Compound 63a, Naphtho[2,3-b]thiophen-2-yl-ethanone], the “inhibition” value in data set [1] was “inhibited cell proliferation at concentrations comparable to β-lapachone and the furan analogs”. The IC50 is 5 µM in data set [1], greater than 32 µM in data set [3], greater than 32 µM in data set [4] and greater than 32 µM in data set [5]. Further, the “LDH release compared to vehicle control (in words)” value in data set [2] is reported as “without significant elevation of LDH release over the vehicle control”.
For `O=C(c1ccccc1)c1cc2c(s1)C(=O)c1ccccc1C2=O` [Compound 64b, 2-Benzoyl-naphtho[2,3-b]thiophene-4,9-dione], the melting point is 158 to 159 °C. In addition, in data set [1], the “inhibition” value is “inhibited cell proliferation at concentrations comparable to β-lapachone and the furan analogs”. For the same compound, the IC50 in data set [1] (Homo sapiens) came to 1.7 µM. Also, in data set [2], the “LDH release compared to vehicle control (in words)” value was “without significant elevation of LDH release over the vehicle control”. Also, the IC50 in data set [3] (Homo sapiens, DLD-1) came to 1.3 µM. The IC50 in data set [4] (Homo sapiens) was determined as 4 µM. The IC50 in data set [5] (Homo sapiens) was no more than 1 µM.
For `O=C1c2c(O)cccc2Cc2cccc(O)c21` [anthralin, reference compound], in data set [1] (Homo sapiens), the IC50 was 0.7 µM. Besides, in data set [2], the “LDH release compared to vehicle control (in words)” value is given as “LDH release significantly higher than vehicle controls” and the “LDH (mU)” value came to 294 mU.
Regarding `O=C(c1ccc(O)c(O)c1)c1cc2c(s1)C(=O)c1ccccc1C2=O` [Compound 65c, 2-(3,4-Dihydroxybenzoyl)-naphtho[2,3-b]thiophene-4,9-dione], the melting point was 272 to 274 °C (dec.). The “inhibition” value in data set [1] is “inhibited cell proliferation at concentrations comparable to β-lapachone and the furan analogs”. Also, the IC50 in data set [1] (Homo sapiens) is 1.5 µM. Further, in data set [2], the “LDH release compared to vehicle control (in words)” value is listed as “without significant elevation of LDH release over the vehicle control” and the “LDH (mU)” value was 118 mU. The IC50 in data set [3] (Homo sapiens, DLD-1) was found to be 11 µM. The IC50 in data set [4] (Homo sapiens) was found to be 20 µM. Besides, the IC50 in data set [5] (Homo sapiens) is 8 µM.
For `COc1ccc(C(=O)c2cc3c(s2)C(=O)c2ccccc2C3=O)cc1OC` [Compound 65b, 2-(3,4-Dimethoxybenzoyl)-naphtho[2,3-b]thiophene-4,9-dione], the melting point fell in the range of 212 to 218 °C. Besides, the “inhibition” value in data set [1] was “inhibited cell proliferation at concentrations comparable to β-lapachone and the furan analogs”. The 50% inhibitory concentration (IC50) in data set [1] (Homo sapiens) was 0.8 µM. Further, in data set [2], the “LDH release compared to vehicle control (in words)” value is “without significant elevation of LDH release over the vehicle control” and the “LDH (mU)” value was found to be 137 mU. Also, the IC50 in data set [3] (Homo sapiens, DLD-1) was determined as 2.6 µM. Also, the IC50 in data set [4] (Homo sapiens) stood at 10 µM. Besides, in data set [5] (Homo sapiens), the IC50 is no more than 1 µM.
As for `CC(=O)c1cc2cc3ccccc3cc2o1` [Compound 73a, Naphtho[2,3-b]furan-2-yl-ethanone], the IC50 in data set [1] is greater than 5 µM; in data set [3], greater than 32 µM; in data set [4], greater than 32 µM; in data set [5], greater than 32 µM.
In turn, `O=C(c1ccc([N+](=O)[O-])cc1)c1cc2c(s1)C(=O)c1ccccc1C2=O` [Compound 66b, 2-(4-Nitrobenzoyl)-naphtho[2,3-b]thiophene-4,9-dione] displayed a melting point of 270 °C. In addition, in data set [1] (Homo sapiens), the IC50 was determined as 4 µM. The IC50 in data set [3] (Homo sapiens, DLD-1) was determined as 25 µM.
Take `COc1ccc(C(=O)c2cc3c(o2)C(=O)c2ccccc2C3=O)cc1OC` [Compound 75b, 2-(3,4-Dimethoxybenzoyl)-naphtho[2,3-b]furan:4,9-dione]: the IC50 in data set [1] is 2.5 µM; in data set [3], 1.4 µM.
In the case of `CC(=O)Oc1cccc2c1C(=O)c1ccsc1C2=O` [Compound 81, 5-Acetoxy-naphtho[2,3-b]thiophene-4,9-dione], in data set [1], the “inhibition” value was “inhibited cell proliferation at concentrations comparable to β-lapachone and the furan analogs”. Moreover, the IC50 in data set [1] (Homo sapiens) was 1.4 µM. Besides, in data set [2], the “LDH release compared to vehicle control (in words)” value is “without significant elevation of LDH release over the vehicle control” and the “LDH (mU)” value is on record as 160 mU.
For `COc1ccc(C(=O)c2cc3cc4ccccc4cc3o2)cc1OC` [Compound 75a, (3,4-Dimethoxyphenyl)-naphtho[2,3-b]furan-2-yl-methanone], the IC50 in data set [1] (Homo sapiens) is greater than 5 µM; in data set [3] (Homo sapiens, DLD-1), 14 µM; in data set [4] (Homo sapiens), 30 µM; in data set [5] (Homo sapiens), 12 µM.
For `COc1ccc(C(=O)c2cc3cc4ccccc4cc3s2)cc1OC` [Compound 65a, (3,4-Dimethoxyphenyl)-naphtho[2,3-b]thiophen-2-yl-methanone], the melting point lay within 175 to 176 °C. Besides, in data set [1] (Homo sapiens), the IC50 was greater than 5 µM. The IC50 in data set [3] (Homo sapiens, DLD-1) was greater than 32 µM. Also, in data set [4] (Homo sapiens), the IC50 is greater than 32 µM. In addition, in data set [5] (Homo sapiens), the IC50 was greater than 32 µM.
Turning to `CC(=O)c1cc2c(o1)C(=O)c1ccccc1C2=O` [Compound 6, 2-Acetyl-naphtho[2,3-b]furan4,9-dione], the “inhibition” value in data set [1] is on record as “inhibited cell proliferation”. In addition, the IC50 in data set [1] (Homo sapiens) was 0.5 µM; in data set [3] (Homo sapiens, DLD-1) it was 0.8 µM; in data set [4] (Homo sapiens), no more than 1 µM; in data set [5] (Homo sapiens), no more than 1 µM. Also, in data set [2], the “LDH release compared to vehicle control (in words)” value was “significant LDH release as compared to vehicle”. For the same compound, the “LDH (mU)” value in data set [2] stood at 331 mU.
